The record followed here is patent publication US7495018B2, “Substituted 1,3-thiazole compounds, their production and use” (Takeda Pharmaceutical Company Limited, priority 2000, dated 2009).

What is called melting point is the temperature of the solid-liquid transition.

Regarding `Cc1cccc(-c2nc(-c3ccc(Cl)cc3)sc2-c2ccnc(C)c2)c1` [Example Compound 14-2, 2-(4-chlorophenyl)-4-(3-methylphenyl)-5-(2-methyl-4-pyridyl)-1,3-thiazole], the melting point fell in the range of 104 to 105 °C. With `Cc1cccc(-c2nc(-c3ccccc3F)sc2-c2ccnc(C)c2)c1` [Example Compound 14-3, 2-(2-fluorophenyl)-4-(3-methylphenyl)-5-(2-methyl-4-pyridyl)-1,3-thiazole], the melting point fell in the range of 73 to 74 °C. In the case of `Cc1cccc(-c2nc(-c3ccc(F)cc3)sc2-c2ccnc(C)c2)c1` [Example Compound 14-4, 2-(4-fluorophenyl)-4-(3-methylphenyl)-5-(2-methyl-4-pyridyl)-1,3-thiazole] it was 89 to 91 °C; in that of `Cc1cccc(-c2nc(-c3ccc(F)cc3F)sc2-c2ccnc(C)c2)c1` [Example Compound 14-5, 2-(2,4-difluorophenyl)-4-(3-methylphenyl)-5-(2-methyl-4-pyridyl)-1,3-thiazole], 90 to 91 °C; in that of `Cc1cccc(-c2nc(-c3ccccc3)sc2-c2ccnc(C)c2)c1` [Example Compound 14-6, 4-(3-methylphenyl)-5-(2-methyl-4-pyridyl)-2-phenyl-1,3-thiazole], 79 to 80 °C. On to `Cc1cccc(-c2nc(Cc3ccccc3)sc2-c2ccnc(C)c2)c1` [Example Compound 14-7, 4-(3-methylphenyl)-5-(2-methyl-4-pyridyl)-2-(phenylmethyl)-1,3-thiazole], for which the melting point was in the range of 82 to 84 °C. `Cc1cccc(-c2nc(CCc3ccccc3)sc2-c2ccnc(C)c2)c1` [Example Compound 14-8, 4-(3-methylphenyl)-5-(2-methyl-4-pyridyl)-2-(2-phenylethyl)-1,3-thiazole] displayed a melting point of 64 to 65 °C. `CCOC(=O)c1nc(-c2cccc(C)c2)c(-c2ccnc(C)c2)s1` [Example Compound 14-12, Ethyl [4-(3-methylphenyl)-5-(2-methyl-4-pyridyl)-1,3-thiazol-2-yl]carboxylate] came in with a melting point of 97 to 98 °C. As to `Cc1cccc(-c2nc(N3CCN(C)CC3)sc2-c2ccnc(C)c2)c1` [Example Compound 14-13, 4-(3-methylphenyl)-2-(4-methylpiperazin-1-yl)-5-(2-methyl-4-pyridyl)-1,3-thiazole], the melting point lay within 115 to 116 °C. As to `Cc1cccc(-c2nc(N3CCN(C)CC3)sc2-c2ccnc(C)c2)c1` [Example Compound 14-14, 4-(3-methylphenyl)-2-(1-methylpiperazin-4-yl)-5-(2-methyl-4-pyridyl)-1,3-thiazole], the melting point lay in the range of 127 to 130 °C. The compound `CSc1ccc(-c2nc(-c3cccc(C)c3)c(-c3ccnc(F)c3)s2)cc1` [Example Compound 15, 5-(2-fluoro-4-pyridyl)-4-(3-methylphenyl)-2-[4-(methylthio)phenyl]-1,3-thiazole] had a melting point of 97 to 100 °C. With `CSc1ccc(-c2nc(-c3cccc(C)c3)c(-c3ccnc(C)c3)s2)cc1` [Example Compound 16-1, 4-(3-methylphenyl)-5-(2-methyl-4-pyridyl)-2-[4-(methylthio)phenyl]-1,3-thiazole] the figure was 119 to 122 °C. For `CSc1ccc(-c2nc(-c3cc(C)cc(C)c3)c(-c3ccnc(C)c3)s2)cc1` [Example Compound 16-2, 4-(3,5-dimethylphenyl)-5-(2-methyl-4-pyridyl)-2-[4-(methylthio)phenyl]-1,3-thiazole], the melting point fell in the range of 123 to 125 °C.

The compound `CSc1ccc(-c2nc(-c3cccc(C)c3)c(-c3cc(C)nc(C)c3)s2)cc1` [Example Compound 16-3, 5-(2,6-dimethyl-4-pyridyl)-4-(3-methylphenyl)-2-[4-(methylthio)phenyl]-1,3-thiazole] gave a melting point of 112 to 114 °C.

For the compound `CSc1ccc(-c2nc(-c3cc(C)cc(C)c3)c(-c3cc(C)nc(C)c3)s2)cc1` [Example Compound 16-4, 4-(3,5-dimethylphenyl)-5-(2,6-dimethyl-4-pyridyl)-2-[4-(methylthio)phenyl]-1,3-thiazole], the melting point lay within 134 to 136 °C. With `CSc1ccc(-c2nc(-c3ccc(F)cc3)c(-c3ccnc(C)c3)s2)cc1` [Example Compound 16-5, 4-(4-fluorophenyl)-5-(2-methyl-4-pyridyl)-2-[4-(methylthio)phenyl]-1,3-thiazole] the figure was 99 to 100 °C. In the case of `Cc1cccc(-c2nc(-c3ccc(F)cc3)sc2-c2ccnc(N)c2)c1` [Example Compound 18-1, 4-[2-(4-fluorophenyl)-4-(3-methylphenyl)-1,3-thiazol-5-yl]-2-pyridylamine] it was 160 to 162 °C.

As for `Cc1cccc(-c2nc(CC(F)(F)F)sc2-c2ccnc(N)c2)c1` [Example Compound 18-3, 4-[4-(3-methylphenyl)-2-(2,2,2-trifluoroethyl)-1,3-thiazol-5-yl]-2-pyridylamine], the melting point is 131 to 132 °C. As for `CCCc1nc(-c2cccc(C)c2)c(-c2ccnc(N)c2)s1` [Example Compound 18-4, 4-[4-(3-methylphenyl)-2-propyl-1,3-thiazol-5-yl]-2-pyridylamine], the melting point fell in the range of 113 to 115 °C.

Turning to `CCOC(=O)Cc1nc(-c2cccc(C)c2)c(-c2ccnc(N)c2)s1` [Example Compound 18-5, Ethyl [5-(2-amino-4-pyridyl)-4-(3-methylphenyl)-1,3-thiazol-2-yl]acetate], the melting point was in the range of 128 to 129 °C. `CCOC(=O)c1nc(-c2cccc(C)c2)c(-c2ccnc(N)c2)s1` [Example Compound 18-6, Ethyl [5-(2-amino-4-pyridyl)-4-(3-methylphenyl)-1,3-thiazol-2-yl]carboxylate] came in with a melting point of 147 to 148 °C. In the case of `CCc1nc(-c2cccc(Cl)c2)c(-c2ccnc(N)c2)s1` [Example Compound 20-1, 4-[2-ethyl-4-(3-chlorophenyl)-1,3-thiazol-5-yl]-2-pyridylamine], the melting point lay in the range of 132 to 133 °C. As to `CCc1nc(-c2ccccc2)c(-c2ccnc(N)c2)s1` [Example Compound 20-2, 4-(2-ethyl-4-phenyl-1,3-thiazol-5-yl)-2-pyridylamine], the melting point lay in the range of 158 to 159 °C.

As to `CCc1nc(-c2ccc(F)cc2)c(-c2ccnc(N)c2)s1` [Example Compound 20-3, 4-[2-ethyl-4-(4-fluorophenyl)-1,3-thiazol-5-yl]-2-pyridylamine], the melting point was in the range of 140 to 141 °C.

Take `CCc1nc(-c2cccc(C(F)(F)F)c2)c(-c2ccnc(N)c2)s1` [Example Compound 20-4, 4-[2-ethyl-4-[3-(trifluoromethyl)phenyl]-1,3-thiazol-5-yl]-2-pyridylamine]: the melting point is 117 to 118 °C. The compound `CCc1nc(-c2ccc(SC)cc2)c(-c2ccnc(N)c2)s1` [Example Compound 20-5, 4-[2-ethyl-4-[4-(methylthio)phenyl]-1,3-thiazol-5-yl]-2-pyridylamine] yielded a melting point of 119 to 120 °C. In the case of `CCc1nc(-c2cccc(F)c2)c(-c2ccnc(N)c2)s1` [Example Compound 20-6, 4-[2-ethyl-4-(3-fluorophenyl)-1,3-thiazol-5-yl]-2-pyridylamine] it was 153 to 154 °C.

The compound `CCc1nc(-c2ccc(Cl)cc2)c(-c2ccnc(N)c2)s1` [Example Compound 20-7, 4-[4-(4-chlorophenyl)-2-ethyl-1,3-thiazol-5-yl]-2-pyridylamine] yielded a melting point of 136 to 137 °C. As to `CCc1cccc(-c2nc(CC)sc2-c2ccnc(N)c2)c1` [Example Compound 20-8, 4-[2-ethyl-4-(3-ethylphenyl)-1,3-thiazol-5-yl]2-pyridylamine], the melting point is 128 to 129 °C. On to `CCc1nc(-c2ccc(F)c(C)c2)c(-c2ccnc(N)c2)s1` [Example Compound 20-9, 4-[2-ethyl-4-(4-fluoro-3-methylphenyl)-1,3-thiazol-5-yl]-2-pyridylamine], for which the melting point lay within 134 to 135 °C. Regarding `CCc1nc(-c2cccc(C(C)C)c2)c(-c2ccnc(N)c2)s1` [Example Compound 20-10, 4-[2-ethyl-4-[3-(1-methylethyl)phenyl]-1,3-thiazol-5-yl]-2-pyridylamine], the melting point lay within 80 to 81 °C. `CCCc1cccc(-c2nc(CC)sc2-c2ccnc(N)c2)c1` [Example Compound 20-11, 4-[2-ethyl-4-(3-propylphenyl)-1,3-thiazol-5-yl]-2-pyridylamine] displayed a melting point of 72 to 74 °C. With `CCc1nc(-c2cccs2)c(-c2ccnc(N)c2)s1` [Example Compound 20-12, 4-[2-ethyl-4-(2-thienyl)-1,3-thiazol-5-yl]-2-pyridylamine] the figure was 159 to 160 °C. Consider `CCCc1nc(-c2cccc(Cl)c2)c(-c2ccnc(N)c2)s1` [Example Compound 21-1, 4-[4-(3-chlorophenyl)-2-propyl-1,3-thiazol-5-yl]-2-pyridylamine], for which the melting point lay within 99 to 100 °C.

Compound `CCOC(=O)Cc1nc(-c2cccc(Cl)c2)c(-c2ccnc(N)c2)s1` [Example Compound 21-2, Ethyl [5-(2-amino-4-pyridyl)-4-(3-chlorophenyl)-1,3-thiazol-2-yl]acetate] registered a melting point of 154 to 155 °C.

The compound `Cc1cccc(-c2nc(C)sc2-c2ccnc(N)c2)c1` [Example Compound 23-1, 4-[2-methyl-4-(3-methylphenyl)-1,3-thiazol-5-yl]-2-pyridylamine] displayed a melting point of 152 to 153 °C. Turning to `CSc1ccc(-c2nc(-c3cccc(C)c3)c(-c3ccnc(N)c3)s2)cc1` [Example Compound 23-2, 4-[4-(3-methylphenyl)-2-[4-(methylthio)phenyl]-1,3-thiazol-5-yl]-2-pyridylamine], the melting point lay within 181 to 183 °C. For the compound `COc1ccc(-c2nc(C)sc2-c2ccnc(N)c2)cc1` [Example Compound 23-3, 4-[4-(4-methoxyphenyl)-2-methyl-1,3-thiazol-5-yl]-2-pyridylamine], the melting point was in the range of 140 to 141 °C. Compound `Cc1cccc(-c2nc(C(=O)O)sc2-c2ccnc(N)c2)c1` [Example Compound 25-1, 5-(2-amino-4-pyridyl)-4-(3-methylphenyl)-1,3-thiazole-2-carboxylic acid] had a melting point of 156 to 157 °C.
